Literature values, collected in patent US20140044668A1, “Methods for Predicting Cardiovascular Risks and Responsiveness to Statin Therapy Using SNPs” (THE OHIO STATE UNIVERSITY, priority 2011, published 2014).

Biological target: T1, CETP (Homo sapiens, UniProt P11597)
T1 sequence (P11597 18-493): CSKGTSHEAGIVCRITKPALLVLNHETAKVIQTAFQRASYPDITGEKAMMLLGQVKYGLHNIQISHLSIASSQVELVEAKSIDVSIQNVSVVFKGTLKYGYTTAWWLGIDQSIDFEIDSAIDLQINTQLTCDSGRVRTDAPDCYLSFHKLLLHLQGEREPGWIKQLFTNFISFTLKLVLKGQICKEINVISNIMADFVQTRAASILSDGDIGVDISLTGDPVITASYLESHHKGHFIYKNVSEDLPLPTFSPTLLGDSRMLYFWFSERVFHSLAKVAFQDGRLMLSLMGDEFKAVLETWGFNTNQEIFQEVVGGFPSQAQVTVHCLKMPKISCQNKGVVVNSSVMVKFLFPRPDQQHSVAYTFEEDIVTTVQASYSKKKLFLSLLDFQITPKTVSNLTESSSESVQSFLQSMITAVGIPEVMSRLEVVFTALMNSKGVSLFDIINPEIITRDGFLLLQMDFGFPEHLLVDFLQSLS
Conditions: in vivo

Q: With `CCOC(=O)N1c2ccc(C(F)(F)F)cc2[C@@H](N(Cc2cc(C(F)(F)F)cc(C(F)(F)F)c2)C(=O)OC)C[C@H]1CC` [torcetrapib] as the compound, how does the HDL read?
A: Its HDL is “HDL increased”.

Q: And the LDL?
A: The LDL was “LDL decreased substantially”.

Q: What about the cardiovascular events of the same compound?
A: The cardiovascular events was “increase cardiovascular events”.
